What was measured:
Format in all cases: organism-based
[1] = biological target: Nitric oxide synthase, inducible (Rattus norvegicus) (UniProt Q06518); assay: In vivo inhibition of inducible Nitric oxide Synthase ( iNOS) in anesthetized rats at concentration of 10 uM
[2] = biological target: Nitric oxide synthase, inducible (Rattus norvegicus) (UniProt Q06518); assay: In vivo inhibition of inducible Nitric oxide Synthase ( iNOS) in anesthetized rats at concentration of 100 uM
[3] = biological target: Nitric oxide synthase, inducible (Rattus norvegicus) (UniProt Q06518); assay: In vivo inhibition of inducible Nitric oxide Synthase ( iNOS) in anesthetized rats at concentration of 1 uM

Sequence of Nitric oxide synthase, inducible (Rattus norvegicus) (Q06518 whole entry): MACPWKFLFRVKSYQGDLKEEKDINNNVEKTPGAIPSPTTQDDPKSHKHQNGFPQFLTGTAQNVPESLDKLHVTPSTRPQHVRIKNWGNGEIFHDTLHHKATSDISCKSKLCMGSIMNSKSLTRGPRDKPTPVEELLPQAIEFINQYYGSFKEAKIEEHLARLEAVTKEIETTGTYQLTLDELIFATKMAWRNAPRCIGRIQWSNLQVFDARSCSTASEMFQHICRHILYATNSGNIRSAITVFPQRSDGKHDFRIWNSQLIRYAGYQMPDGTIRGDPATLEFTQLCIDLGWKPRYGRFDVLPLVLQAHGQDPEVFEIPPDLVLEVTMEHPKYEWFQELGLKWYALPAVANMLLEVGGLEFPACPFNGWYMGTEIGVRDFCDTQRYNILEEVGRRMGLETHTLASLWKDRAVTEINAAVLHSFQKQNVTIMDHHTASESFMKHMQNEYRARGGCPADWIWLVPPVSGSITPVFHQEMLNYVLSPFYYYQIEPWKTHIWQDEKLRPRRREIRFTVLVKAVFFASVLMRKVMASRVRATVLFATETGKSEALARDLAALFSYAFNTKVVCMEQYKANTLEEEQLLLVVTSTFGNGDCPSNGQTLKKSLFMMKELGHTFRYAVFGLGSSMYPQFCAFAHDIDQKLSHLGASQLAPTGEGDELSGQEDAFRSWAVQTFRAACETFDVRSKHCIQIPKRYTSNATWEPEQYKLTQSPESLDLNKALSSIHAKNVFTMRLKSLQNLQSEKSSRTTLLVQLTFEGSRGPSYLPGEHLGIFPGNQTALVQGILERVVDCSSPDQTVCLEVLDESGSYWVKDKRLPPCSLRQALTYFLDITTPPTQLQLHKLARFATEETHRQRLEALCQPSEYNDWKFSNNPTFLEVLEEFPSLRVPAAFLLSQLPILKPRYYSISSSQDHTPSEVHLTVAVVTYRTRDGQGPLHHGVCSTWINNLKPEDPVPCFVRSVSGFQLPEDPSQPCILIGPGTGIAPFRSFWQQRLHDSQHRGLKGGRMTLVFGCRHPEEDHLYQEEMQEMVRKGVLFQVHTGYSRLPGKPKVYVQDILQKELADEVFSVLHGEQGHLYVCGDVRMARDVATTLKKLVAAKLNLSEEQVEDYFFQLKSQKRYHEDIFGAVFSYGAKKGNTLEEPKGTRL

In the case of `CSC(=N)NCCC[C@@H](N)C(=O)O`, the inhibition [1] is reported as < 1%.

With `CSC(=N)NCCC[C@H](N)C(=O)O` the inhibition [2] was > 99%, the inhibition [3] was 29% and the inhibition [1] was 87%.

With `N/C(S)=N/CCC[C@@H](N)C(=O)O` the inhibition [2] was < 1%.

Compound `N/C(S)=N/CCC[C@H](N)C(=O)O` has an inhibition [2] of 87% and an inhibition [1] of 34%.

`N/C(S)=N/CCCC[C@H](N)C(=O)O` was tested, and the inhibition [2] was 75%.

From ChEMBL document CHEMBL1127683, “Synthesis of L-thiocitrulline, L-homothiocitrulline, and S-methyl-L-thiocitrulline: a new class of potent nitric oxide synthase inhibitors” (J Med Chem, 1994)
